Measurements: ChEMBL document CHEMBL4376876 (J Med Chem, 2020)

Each compound was assayed against Enoyl-[acyl-carrier-protein] reductase [NADH] (Mycobacterium tuberculosis, UniProt P9WGR1, S94A).

SMILES	IC50
CC(C)[C@H]1OC(=O)[C@H](C)[C@H](O)[C@H](Cc2cccnc2)NC(=O)[C@@H](NC(=O)c2ncccc2O)[C@@H](C)OC1=O	32.8 µM
CC[C@H]1OC(=O)[C@H](C)[C@H](O)[C@H](Cc2cccnc2)NC(=O)[C@@H](NC(=O)c2ncccc2O)[C@@H](C)OC1=O	127 µM
CC[C@@H](C)[C@H]1OC(=O)[C@H](C)[C@H](O)[C@H](Cc2cccnc2)NC(=O)[C@@H](NC(=O)c2ncccc2O)[C@@H](C)OC1=O	31.5 µM
C[C@@H]1C(=O)N[C@H](C2CCCCC2)C(=O)O[C@H](C)[C@H](NC(=O)c2ncccc2O)C(=O)N[C@@H](Cc2cccnc2)[C@@H]1O	291 µM
C[C@H]1OC(=O)[C@@H](Cc2ccccc2)OC(=O)[C@H](C)[C@H](O)[C@H](Cc2cccnc2)NC(=O)[C@H]1NC(=O)c1ncccc1O	29.1 µM
CC[C@H](C)[C@H]1OC(=O)[C@H](C)[C@H](O)[C@H](Cc2cccnc2)NC(=O)[C@@H](NC(=O)c2ncccc2O)[C@@H](C)OC1=O	87.2 µM
